Source: patent publication US20100285959A1, “HERBICIDAL MIXTURES” (priority 2006, published 2010)

Key:
[1] = system: common lambsquarters (CHEAL); test: Test 21 growth chamber, postemergence; assay type: in vivo, Chenopodium album; conditions: 19 DAA
Experimental: A test was conducted to evaluate the effects on winter barley (HORVW, Hordeum vulgare L.), winter wheat (TRZAW, Triticum aestivum L.), and several weed species, of mixtures of Compound 2 with the commercial herbicide (2,4-dichlorophenoxy)acetic acid (2,4-D), an auxin mimic. […] Plants were treated postemergence at the 2-4 leaf growth stage, and each treatment was replicated one time. […] Plants were watered as needed. […] Results are from single replicates.

[2] = system: redroot pigweed (AMARE); test: Test 2 field trial, preemergence; assay type: in vivo, Amaranthus retroflexus; set-up: scale not given here
From the text: Corn seeds (hybrid ‘Pioneer 31G96’) were planted in mid spring season, 3.8 cm deep in a clay loam soil having 2% organic matter and a pH of 6.6. Plots were 6.1 m long by 3.0 m wide with rows spaced 76 cm apart. Seeds were spaced 15 cm apart within the rows. The field was managed using conventional tillage practices. […] A few of the weed species could not be evaluated at every timing. […] Results are the means of the three replicates.

[3] = system: sicklepod (CASOB); test: Test 12 field trial, preemergence; assay type: in vivo, Cassia obtusifolia; set-up: scale not given here; conditions: Cpd 2 or Cpd 1 62 g a.i./ha, Diuron 2000 g a.i./ha
From the text: In early-mid spring season, corn seeds (hybrid ‘Pioneer 3041’) were planted 5 cm deep and sugarcane nodes (variety RB-72.454) were planted 10 cm deep in separate plots in a clay soil having 2.6% organic matter and a pH of 5.6. Plots were 24 m long by 1.5 m wide with rows spaced 80 cm (corn) or 140 cm (sugarcane) apart. Corn seeds were spaced 15 cm apart and sugarcane nodes were spaced 10 cm apart within the rows. At the same time, weed seeds were broadcast over the surface of separate plots without a crop, one weed species per plot. The weed plots were rotary tilled to incorporate the weed seeds to a variety of depths. The field was managed using conventional tillage practices.

[4] = system: common chickweed (STEME); test: Test 3 field trial, emerged weeds before corn planting; assay type: in vivo, Stellaria media; conditions: Cpd 2 100, glyphosate 1540, paraquat 1150 g a.i./ha, alone or combined
From the text: Corn seeds (hybrid ‘Pioneer 33J56’) were planted in early spring season, 3.8 cm deep in a silt loam soil having 2.4% organic matter and a pH of 6. Plots were 6.1 m long by 2.7 m wide with rows spaced 91.4 cm apart. The field was managed using no-till practices. […] Compound 2 and paraquat treatments, alone and in combination, also included a surfactant. Glyphosate, alone and with Compound 2, included ammonium sulfate in the treatment mixture. […] The effects on the weeds in the treated plots and untreated control plots were recorded 30, 42, 46 and 68 days after application. Most of the weed species could not be evaluated at every timing. Corn response was not evaluated because the growth was highly variable depending on the efficacy of the weed control treatments. […] Results are the means of the three replicates.

[5] = system: bushy wallflower (ERYRE); test: Test 9 field trial, emerged weeds before corn planting; assay type: in vivo, Erysimum repandum; conditions: g a.i./ha: Cpd 2 100, Glyphosate 1540, Paraquat 1150
Experimental: Corn seeds (hybrid ‘Pioneer 34M91 RR’) were planted in mid spring season, about 3.8 cm deep in a silty clay loam soil having a pH of 6.7. Plots were 9.1 m long by 3.0 m. The field was managed using no-till practices. […] Compound 2 and paraquat treatments, alone and in combination, also included a surfactant. Glyphosate, alone and with Compound 2, included ammonium sulfate in the treatment mixture. […] The effects on the weeds in the treated plots and untreated control plots were recorded 7, 14, 23, 30 and 57 days after application. Most of the weed species could not be evaluated at every timing. Corn response was only evaluated 57 days after application. […] Results are the means of the three replicates.

[6] = system: jimsonweed (DATST); test: Test 7 field trial, preemergence; assay type: in vivo, Datura stramonium
Experimental: Plots were 7.6 m long by 3.0 m wide with rows spaced 76 cm apart. Seeds were spaced 15 cm apart within the rows. The field was managed using conventional tillage practices. […] Wild radish was evaluated 14 and 28 days after application. […] Results are the means of the three replicates.

[7] = 28 DAA, g a.i./ha: Cpd 2 25, Atrazine 250
[8] = 28 DAA, g a.i./ha: Cpd 2 50, Atrazine 500
[9] = 28 DAA, g a.i./ha: Cpd 2 75, Atrazine 750
[10] = 28 DAA, g a.i./ha: Cpd 2 100, Atrazine 1000
[11] = 28 DAA, g a.i./ha: Cpd 2 150, Atrazine 1500
[12] = 55 DAA, g a.i./ha: Cpd 2 25, Atrazine 250
[13] = 55 DAA, g a.i./ha: Cpd 2 50, Atrazine 500
[14] = 55 DAA, g a.i./ha: Cpd 2 75, Atrazine 750
[15] = 55 DAA, g a.i./ha: Cpd 2 100, Atrazine 1000
[16] = 55 DAA, g a.i./ha: Cpd 2 150, Atrazine 1500

| SMILES | AMARE Obs [2, 7] | AMARE Obs [2, 8] | AMARE Obs [2, 9] | AMARE Obs [2, 10] | AMARE Obs [2, 11] | AMARE Obs [2, 12] | AMARE Obs [2, 13] | AMARE Obs [2, 14] | AMARE Obs [2, 15] | AMARE Obs [2, 16] | CASOB Obs ([3]; 15 DAA) | CASOB Obs ([3]; 29 DAA) | CASOB Obs ([3]; 48 DAA) | CASOB Obs ([3]; 61 DAA) | STEME Obs ([4]; 30 DAA) [%] | STEME Obs ([4]; 42 DAA) [%] | STEME Obs ([4]; 46 DAA) [%] | ERYRE Obs ([5]; 7 DAA) [%] | ERYRE Obs ([5]; 14 DAA) [%] | ERYRE Obs ([5]; 23 DAA) [%] | also measured |
| --- | --- | --- | --- | --- | --- | --- | --- | --- | --- | --- | --- | --- | --- | --- | --- | --- | --- | --- | --- | --- | --- |
| O=C(O)COc1ccc(Cl)cc1Cl [2,4-D, (2,4-dichlorophenoxy)acetic acid] |  |  |  |  |  |  |  |  |  |  |  |  |  |  |  |  |  |  |  |  | Postemergence CHEAL Obs ([1]; 2,4-D alone 125 g a.i./ha): 40; Postemergence CHEAL Obs ([1]; 2,4-D alone 250 g a.i./ha): 40 |
| CCNc1nc(Cl)nc(NC(C)C)n1 [Atrazine, atrazine, reference compound] | 72 | 97 | 90 | 100 | 100 | 95 | 99 | 100 | 100 | 100 |  |  |  |  |  |  |  |  |  |  |  |
| Nc1nc(C2CC2)nc(C(=O)O)c1Cl [Compound 1, 6-amino-5-chloro-2-cyclopropyl-4-pyrimidinecarboxylic acid] |  |  |  |  |  |  |  |  |  |  | 60 | 70 | 90 | 90 |  |  |  |  |  |  |  |
| COC(=O)c1nc(C2CC2)nc(N)c1Cl [Compound 2, methyl 6-amino-5-chloro-2-cyclopropyl-4-pyrimidinecarboxylate] | 30 | 90 | 98 | 93 | 82 | 100 | 100 | 100 | 100 | 100 | 60 | 80 | 60 | 50 | 62 | 37 | 30 | 20 | 3 | 3 | ERYRE Obs ([5]; 30 DAA): 0%; ERYRE Obs ([5]; 57 DAA): 0%; Postemergence CHEAL Obs ([1]; Cpd 2 alone 16 g a.i./ha): 60; DATST Obs ([6]; 14 DAA, 125 g a.i./ha): 98%; DATST Obs ([6]; 14 DAA, 250 g a.i./ha): 98%; DATST Obs ([6]; 14 DAA, 500 g a.i./ha): 100%; DATST Obs ([6]; 28 DAA, 125 g a.i./ha): 98%; DATST Obs ([6]; 28 DAA, 250 g a.i./ha): 98%; DATST Obs ([6]; 28 DAA, 500 g a.i./ha): 100%; DATST Obs ([6]; 62 DAA, 125 g a.i./ha): 100%; DATST Obs ([6]; 62 DAA, 500 g a.i./ha): 100% |
| O=C(O)CNCP(=O)(O)O [Glyphosate] |  |  |  |  |  |  |  |  |  |  |  |  |  |  | 100 | 88 | 100 | 63 | 74 | 89 | ERYRE Obs ([5]; 30 DAA): 100%; ERYRE Obs ([5]; 57 DAA): 100% |
| CCc1cccc(C)c1N(C(=O)CCl)[C@@H](C)COC [S-Metolachlor, S-metolachlor, reference compound] |  |  |  |  |  |  |  |  |  |  |  |  |  |  |  |  |  |  |  |  | DATST Obs ([6]; 14 DAA, 1000 g a.i./ha): 65%; DATST Obs ([6]; 28 DAA, 1000 g a.i./ha): 57%; DATST Obs ([6]; 62 DAA, 1000 g a.i./ha): 0% |
